Source: PMC7794376 (Nature Communications, 2021)
Values after ≈ are worked out from the molar mass of the structure shown. Values joined by “and” are separate entries in the source; they are usually repeats but may differ in a detail not shown here. Equal values may be shown once. Read-outs that look alike come from different tables or passages of the source.

Columns and labels:
human CoaB (HCoaB) = human CoaB (HCoaB) (Homo sapiens, UniProt Q9HAB8); experiment: EnzChek pyrophosphate assay, HCoaB; assay type: biochemical; conditions: replicates R1-R3; for Activity: slope of absorbance at 360 nm vs time (s)
MsmCoaBC = MsmCoaBC (Mycolicibacterium smegmatis, UniProt A0QWT2); experiment: EnzChek pyrophosphate assay, CoaB activity of MsmCoaBC; assay type: biochemical, Mycobacterium smegmatis
Description: The commercially available EnzChek pyrophosphate assay kit (E-6645) (Life Technologies) was used for this assay. […] In the assays with HCoaB an enzyme concentration of 1 µM was used instead. […] Assays were performed on either a CLARIOstar or PHERAstar microplate reader (BMG Labtech) in 96-well plates (Greiner). A substrate mixture containing the substrates and the inhibitor was pre-incubated at 25 °C for 10 min. An enzyme solution was prepared and separately pre-incubated at 25 °C for 10 min. The reaction was initiated by the addition of the substrates to the solution containing the enzyme to a final volume of 75 µL. Enzymatic activity was monitored by following the absorbance at 360 nm for 30 min (100 cycles/20 s each cycle) and only the steady-state region of the assay was used for data analysis. Assays were performed in triplicates, including a negative control (lacking PPA) and a positive control (lacking inhibitor).

MtbCoaBC [1] = molecular target: T1, MtbCoaBC (Mycobacterium tuberculosis, UniProt P9WNZ1); experiment: High-throughput end-point pyrophosphate quantification assay (Biomol Green); assay type: biochemical; conditions: MtbCoaB activity; end-point, 2 µM CTP, 40 µM L-cysteine, 30 µM PPA; read-out: IC50 biomol green assay
MtbCoaBC [2] = molecular target: T1, MtbCoaBC; experiment: Competition assays, first half of CoaB reaction (EnzChek, variable CTP or PPA); assay type: biochemical; conditions: in words
MtbCoaBC [3] = molecular target: T1, MtbCoaBC; experiment: CMP quantification assay (UPLC), second half of CoaB reaction, variable L-cysteine; assay type: biochemical; conditions: for CMP formation rate, uM CMP/uM protein.s-1: MtbCoaBC 32 nM, replicates R1-R3
M. tuberculosis H37Rv = experiment: MIC determination in different media; assay type: cell-based; conditions: Mycobacterium tuberculosis, read-out: Minimum inhibitory concentration (MIC)
[4] = system: M. tuberculosis coaBC Tet-OFF conditional knockdown; assay type: cell-based, Mycobacterium tuberculosis; conditions: GAST/Fe minimal media
[5] = 50 uM 1b, relative to average DMSO CT
[6] = 100 uM 1b, relative to average DMSO CT
[7] = MsmCoaBC, 1b at concentration 1 (log 0; unit not given)
[8] = MsmCoaBC, 1b at concentration 2 (log 0.30103; unit not given)
[9] = MsmCoaBC, 0.015625 uM 1b, relative to average DMSO CT, replicates R1-R3
[10] = MsmCoaBC, 0.015625 uM 1b, replicates R1-R3
[11] = MsmCoaBC, 0.03125 uM 1b, relative to average DMSO CT, replicates R1-R3
[12] = MsmCoaBC, 0.03125 uM 1b, replicates R1-R3
[13] = MsmCoaBC, 0.0625 uM 1b, relative to average DMSO CT, replicates R1-R3
[14] = MsmCoaBC, 0.0625 uM 1b, replicates R1-R3
[15] = MsmCoaBC, 0.25 uM 1b, relative to average DMSO CT, replicates R1-R3
[16] = MsmCoaBC, 0.25 uM 1b, replicates R1-R3
[17] = MsmCoaBC, 0.5 uM 1b, replicates R1-R3

MsmCoaBC, sequence (A0QWT2 whole entry): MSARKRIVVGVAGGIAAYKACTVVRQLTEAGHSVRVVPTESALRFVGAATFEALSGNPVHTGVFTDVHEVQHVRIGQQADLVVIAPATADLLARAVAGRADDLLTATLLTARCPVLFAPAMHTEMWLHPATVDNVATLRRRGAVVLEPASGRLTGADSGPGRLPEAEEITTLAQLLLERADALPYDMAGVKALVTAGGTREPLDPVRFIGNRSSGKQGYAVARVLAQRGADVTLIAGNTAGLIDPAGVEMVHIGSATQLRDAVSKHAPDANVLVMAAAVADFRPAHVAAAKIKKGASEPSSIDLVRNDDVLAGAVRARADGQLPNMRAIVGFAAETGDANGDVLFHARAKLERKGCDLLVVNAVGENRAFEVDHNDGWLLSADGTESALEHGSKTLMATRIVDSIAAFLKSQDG
T1 sequence (P9WNZ1 whole entry): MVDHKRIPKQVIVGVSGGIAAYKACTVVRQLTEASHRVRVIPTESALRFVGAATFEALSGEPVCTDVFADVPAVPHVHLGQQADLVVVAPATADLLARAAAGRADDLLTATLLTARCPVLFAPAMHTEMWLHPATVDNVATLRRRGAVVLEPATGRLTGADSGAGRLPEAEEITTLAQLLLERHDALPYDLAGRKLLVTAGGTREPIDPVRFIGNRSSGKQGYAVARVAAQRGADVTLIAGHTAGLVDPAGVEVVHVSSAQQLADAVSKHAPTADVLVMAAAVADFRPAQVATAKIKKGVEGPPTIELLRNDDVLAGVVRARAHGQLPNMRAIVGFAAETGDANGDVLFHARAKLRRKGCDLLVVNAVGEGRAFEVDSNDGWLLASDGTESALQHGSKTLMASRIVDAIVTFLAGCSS
human CoaB (HCoaB), sequence (Q9HAB8 whole entry): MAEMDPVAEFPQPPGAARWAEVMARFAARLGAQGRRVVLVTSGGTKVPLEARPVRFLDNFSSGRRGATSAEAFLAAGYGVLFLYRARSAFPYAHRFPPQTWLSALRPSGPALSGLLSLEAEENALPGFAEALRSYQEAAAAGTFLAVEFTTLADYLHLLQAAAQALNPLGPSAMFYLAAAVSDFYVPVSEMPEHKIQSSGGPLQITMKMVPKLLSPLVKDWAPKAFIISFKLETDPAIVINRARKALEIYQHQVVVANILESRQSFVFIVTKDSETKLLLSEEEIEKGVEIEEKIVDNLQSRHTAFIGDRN

## O=C(c1ccc(O)cc1)c1ccc(O)c(O)c1O [compound 1b]
Human CoaB (HCoaB); 25 uM 1b
  inhibition at 25 µM: 17.3%
  Activity: 0.0001127 and 0.0001145 and 0.0001146
Human CoaB (HCoaB); [5]
  Activity %: 63.96% and 63.87%
  activity at 50 µM: 75.6%
Human CoaB (HCoaB); 50 uM 1b
  Inhibition %: 36.13% and 24.38%
  inhibition at 50 µM: 36%
  Activity: 0.0001047 and 0.000088534 and 0.000088398
Human CoaB (HCoaB); [6]
  Activity %: 56.11% and 53.46%
  activity at 100 µM: 60.5%
Human CoaB (HCoaB); 100 uM 1b
  Inhibition %: 46.54% and 39.47%
  inhibition at 100 µM: 43.9%
  Activity: 0.000083783 and 0.000077656 and 0.000074000
Human CoaB (HCoaB); 200 uM 1b, compound interference at 200uM makes the assay unreliable
  Activity: -0.000004063 and 0.000002127 and -0.000001796
MsmCoaBC
  IC50: 260 ± 20 nM
MsmCoaBC; [7]
  inhibition, replicates 1-3: 86.05 and 84.82 and 84.29
  reaction rate (slope of absorbance at 360 nm versus time), replicates 1-3: 0.000051231 and 0.000045511 and 0.000049507
  remaining activity relative to control, replicates 1-3: 15.71 and 13.95 and 15.18
MsmCoaBC; [8]
  inhibition, replicates 1-3: 94.07
  reaction rate (slope of absorbance at 360 nm versus time), replicates 1-3: -0.000000851 and -0.000003095 and 0.000019348
  remaining activity relative to control, replicates 1-3: -0.2608 and -0.9489 and 5.932
MsmCoaBC; [9]
  Activity %: 96.69% and 95.33%
  activity at 0.015625 µM: 98.6%
MsmCoaBC; [10]
  Activity (slope of absorbance at 360 nm vs time): 0.0003217 and 0.0003154 and 0.0003109
  Inhibition %: 3.31% and 4.67% and 1.38%
MsmCoaBC; [11]
  Activity %: 95.46% and 96.92%
  activity at 0.03125 µM: 93.2%
MsmCoaBC; [12]
  Activity (slope of absorbance at 360 nm vs time): 0.0003041 and 0.0003114 and 0.0003161
  Inhibition %: 4.54% and 3.08% and 6.75%
MsmCoaBC; [13]
  Activity %: 92.06% and 92.26%
  activity at 0.0625 µM: 85.7%
MsmCoaBC; [14]
  Activity (slope of absorbance at 360 nm vs time): 0.0002796 and 0.0003003 and 0.0003009
  Inhibition %: 7.74% and 14.27%
  inhibition at 0.0625 µM: 7.94%
MsmCoaBC; [15]
  Activity %: 48.31% and 55.06%
  activity at 0.25 µM: 46%
MsmCoaBC; [16]
  Activity (slope of absorbance at 360 nm vs time): 0.0001501 and 0.0001576 and 0.0001796
  Inhibition %: 44.94% and 53.97%
  inhibition at 0.25 µM: 51.7%
MsmCoaBC; MsmCoaBC, 0.5 uM 1b, relative to average DMSO CT, replicates R1-R3
  Activity %: 12.28% and 18.89% and 25.96%
MsmCoaBC; [17]
  Activity (slope of absorbance at 360 nm vs time): 0.000040045 and 0.000061602 and 0.000084683
  Inhibition %: 74.04% and 87.72%
  inhibition at 0.5 µM: 81.1%
MtbCoaBC [1]
  IC50: 300 nM
MtbCoaBC [2]; relative to CTP
  mode of inhibition: uncompetitive inhibition
MtbCoaBC [2]; relative to PPA
  mode of inhibition: uncompetitive inhibition
MtbCoaBC [3]; 0.0625 uM 1b, 31.25 uM L-cysteine
  CMP formation rate, uM CMP/uM protein.s-1: 0.1694 uM CMP/uM protein.s-1 and 0.1962 uM CMP/uM protein.s-1 and 0.1676 uM CMP/uM protein.s-1
MtbCoaBC [3]; 0.0625 uM 1b, 62.5 uM L-cysteine
  CMP formation rate, uM CMP/uM protein.s-1: 0.2113 uM CMP/uM protein.s-1 and 0.2325 uM CMP/uM protein.s-1 and 0.2281 uM CMP/uM protein.s-1
MtbCoaBC [3]; 0.0625 uM 1b, 250 uM L-cysteine
  CMP formation rate, uM CMP/uM protein.s-1: 0.2822 uM CMP/uM protein.s-1 and 0.2759 uM CMP/uM protein.s-1 and 0.2797 uM CMP/uM protein.s-1
MtbCoaBC [3]; 0.0625 uM 1b, 500 uM L-cysteine
  CMP formation rate, uM CMP/uM protein.s-1: 0.3148 uM CMP/uM protein.s-1 and 0.3211 uM CMP/uM protein.s-1 and 0.3277 uM CMP/uM protein.s-1
MtbCoaBC [3]; 0.250 uM 1b, 31.25 uM L-cysteine
  CMP formation rate, uM CMP/uM protein.s-1: 0.1192 uM CMP/uM protein.s-1 and 0.1053 uM CMP/uM protein.s-1 and 0.1262 uM CMP/uM protein.s-1
MtbCoaBC [3]; 0.250 uM 1b, 62.5 uM L-cysteine
  CMP formation rate, uM CMP/uM protein.s-1: 0.1329 uM CMP/uM protein.s-1 and 0.1247 uM CMP/uM protein.s-1 and 0.1395 uM CMP/uM protein.s-1
MtbCoaBC [3]; 0.250 uM 1b, 250 uM L-cysteine
  CMP formation rate, uM CMP/uM protein.s-1: 0.1577 uM CMP/uM protein.s-1 and 0.155 uM CMP/uM protein.s-1 and 0.1593 uM CMP/uM protein.s-1
MtbCoaBC [3]; 0.250 uM 1b, 500 uM L-cysteine
  CMP formation rate, uM CMP/uM protein.s-1: 0.1688 uM CMP/uM protein.s-1 and 0.1557 uM CMP/uM protein.s-1 and 0.1625 uM CMP/uM protein.s-1
MtbCoaBC [3]; relative to L-cysteine, in words
  mode of inhibition: uncompetitive inhibition
M. tuberculosis H37Rv; 7H9/ADC/Glycerol
  MIC: > 250 µM
M. tuberculosis H37Rv; 7H9/Cholesterol/Tyloxapol
  MIC: > 250 µM
M. tuberculosis H37Rv; GAST/Fe
  MIC: 125 µM (≈ 30.8 µg/mL)
[4]
  sensitisation on incremental silencing of CoaBC: did not sensitise M. tuberculosis further
